This test has as its system mice, LPC-1 plasma cell tumor ip, median survival T/C. The experiment in a line: NCI In Vivo Anticancer Drug Screen. Data for tumor model Lieberman Plasma Cell No. 1 (LPC-1) (intraperitoneal) in unknown mice. To be noted: endpoint: median survival time, higher = longer survival. The protocol:
The antitumor activity of compounds was measured in mice bearing transplantable tumors. Survival or tumor size were measured and the results are expressed as the measurement made in the treated group (T) divided by the measurement made in the vehicle treated control group (C). The tumor model used in this assay is Lieberman Plasma Cell No. 1 (LPC-1) (intraperitoneal) in unknown mice

Where “and” joins values, the source holds several entries; their conditions need not be identical. Equal values may be shown once. Inconclusive results and toxic doses are left out.

Turning to `COc1cc2c(c3c1c(=O)c1ccccc1n3C)C=CC(C)(C)O2`, the T/C runs as follows: (dose: 9.38 mg/kg/injection, schedule: Q03HX024 (oral), vehicle: steriod suspending solution) 118 % of control; (dose: 18.0 mg/kg/injection, schedule: Q01DX021 (sc), vehicle: other) 121 % of control; (dose: 18.0 mg/kg/injection, schedule: Q03HX008 (sc), vehicle: other) 166 % of control; (dose: 18.75 mg/kg/injection, schedule: Q03HX008 (ip), vehicle: steriod suspending solution) 103 % of control; (dose: 18.75 mg/kg/injection, schedule: Q03HX024 (oral), vehicle: steriod suspending solution) 118 % of control; (dose: 23.0 mg/kg/injection, schedule: Q01DX028 (sc), vehicle: other) 154 % of control. Also, the T/C by setting is: (dose: 27.0 mg/kg/injection, schedule: Q03HX008 (sc), vehicle: other) 280 % of control; (dose: 27.0 mg/kg/injection, schedule: Q03HX024 (sc), vehicle: other) 178 % of control; (dose: 37.5 mg/kg/injection, schedule: Q01DX028 (oral), vehicle: other) 105 % of control; (dose: 37.5 mg/kg/injection, schedule: Q03HX008 (oral), vehicle: steriod suspending solution) 118 % of control; (dose: 37.5 mg/kg/injection, schedule: Q03HX024 (oral), vehicle: steriod suspending solution) 109 % of control; (dose: 40.0 mg/kg/injection, schedule: Q01DX021 (sc), vehicle: other) 164 % of control. The T/C runs as follows: (dose: 40.0 mg/kg/injection, schedule: Q03HX008 (sc), vehicle: other) 180 % of control; (dose: 40.0 mg/kg/injection, schedule: Q03HX024 (sc), vehicle: other) 204 % of control; (dose: 60.0 mg/kg/injection, schedule: Q01DX021 (sc), vehicle: other) 173 % of control; (dose: 60.0 mg/kg/injection, schedule: Q04DX003 (sc), vehicle: other) 152 % of control; (dose: 70.0 mg/kg/injection, schedule: Q03HX024 (sc), vehicle: steriod suspending solution) 112 % of control; (dose: 75.0 mg/kg/injection, schedule: Q01DX001 (ip), vehicle: steriod suspending solution) 112 % of control. The T/C is 96 % of control (dose: 75.0 mg/kg/injection, schedule: Q01DX001 (oral), vehicle: steriod suspending solution); 108 % of control (dose: 75.0 mg/kg/injection, schedule: Q01DX028 (oral), vehicle: other); 87 % of control (dose: 75.0 mg/kg/injection, schedule: Q03HX008 (oral), vehicle: steriod suspending solution); 150 % of control (dose: 75.0 mg/kg/injection, schedule: Q03HX024 (oral), vehicle: steriod suspending solution); 150 % of control (dose: 90.0 mg/kg/injection, schedule: Q01DX005 (sc), vehicle: other); 120 % of control (dose: 99.0 mg/kg/injection, schedule: Q01DX020 (oral), vehicle: saline). In addition, the T/C is, setting by setting: (dose: 100.0 mg/kg/injection, schedule: Q01DX001 (sc), vehicle: steriod suspending solution) 100 % of control; (dose: 142.0 mg/kg/injection, schedule: Q01DX001 (sc), vehicle: steriod suspending solution) 104 % of control; (dose: 143.0 mg/kg/injection, schedule: Q03HX008 (sc), vehicle: steriod suspending solution) 153 % of control; (dose: 143.0 mg/kg/injection, schedule: Q03HX024 (sc), vehicle: steriod suspending solution) 156 % of control; (dose: 145.0 mg/kg/injection, schedule: Q03HX024 (sc), vehicle: other) 103 % of control; (dose: 150.0 mg/kg/injection, schedule: Q01DX001 (ip), vehicle: steriod suspending solution) 100 % of control. Moreover, the T/C was 106 % of control and 112 % of control (dose: 150.0 mg/kg/injection, schedule: Q01DX001 (oral), vehicle: steriod suspending solution); 100 % of control (dose: 150.0 mg/kg/injection, schedule: Q01DX028 (oral), vehicle: other); 154 % of control (dose: 180.0 mg/kg/injection, schedule: Q01DX001 (sc), vehicle: other); 171 % of control (dose: 180.0 mg/kg/injection, schedule: Q01DX005 (sc), vehicle: other); 173 % of control (dose: 180.0 mg/kg/injection, schedule: Q04DX003 (sc), vehicle: other); 159 % of control (dose: 204.0 mg/kg/injection, schedule: Q03HX008 (sc), vehicle: steriod suspending solution). Also, the T/C (dose: 214.0 mg/kg/injection, schedule: Q01DX001 (sc), vehicle: steriod suspending solution) was 102 % of control; the T/C (dose: 214.0 mg/kg/injection, schedule: Q03HX024 (sc), vehicle: other) is 112 % of control and 121 % of control; the T/C (dose: 300.0 mg/kg/injection, schedule: Q01DX001 (oral), vehicle: steriod suspending solution) was 106 % of control; the T/C (dose: 300.0 mg/kg/injection, schedule: Q## X008 (oral), vehicle: other) is 161 % of control; the T/C (dose: 320.0 mg/kg/injection, schedule: Q01DX001 (sc), vehicle: steriod suspending solution) was 104 % of control; the T/C (dose: 320.0 mg/kg/injection, schedule: Q03HX024 (sc), vehicle: other) was 118 % of control. In addition, the T/C reads like this: (dose: 360.0 mg/kg/injection, schedule: Q01DX001 (sc), vehicle: other) 152 % of control; (dose: 480.0 mg/kg/injection, schedule: Q01DX001 (sc), vehicle: steriod suspending solution) 118 % of control; (dose: 528.0 mg/kg/injection, schedule: Q## X008 (sc), vehicle: steriod suspending solution) 116 % of control; (dose: 600.0 mg/kg/injection, schedule: Q01DX001 (ip), vehicle: steriod suspending solution) 112 % of control; (dose: 600.0 mg/kg/injection, schedule: Q01DX001 (oral), vehicle: steriod suspending solution) 120 % of control; (dose: 600.0 mg/kg/injection, schedule: Q## X024 (oral), vehicle: steriod suspending solution) 86 % of control. Also, the T/C reads like this: (dose: 800.0 mg/kg/injection, schedule: Q## X024 (sc), vehicle: steriod suspending solution) 166 % of control; (dose: 1136.0 mg/kg/injection, schedule: Q## X008 (sc), vehicle: steriod suspending solution) 108 % of control; (dose: 1712.0 mg/kg/injection, schedule: Q## X024 (sc), vehicle: steriod suspending solution) 160 % of control; (dose: 2560.0 mg/kg/injection, schedule: Q## X008 (sc), vehicle: steriod suspending solution) 172 % of control; (dose: 2560.0 mg/kg/injection, schedule: Q## X024 (sc), vehicle: steriod suspending solution) 118 % of control.
Regarding `Cc1c2c(c(C)c3c1OC(C)(C)CC3)OC(C)(C)CC2`, the T/C (dose: 50.0 mg/kg/injection, schedule: Q01DX009 (sc), vehicle: saline) was 104 % of control; the T/C (dose: 100.0 mg/kg/injection, schedule: Q01DX009 (sc), vehicle: saline) was 97 % of control; the T/C (dose: 200.0 mg/kg/injection, schedule: Q01DX009 (sc), vehicle: saline) is 95 % of control; the T/C (dose: 400.0 mg/kg/injection, schedule: Q01DX009 (sc), vehicle: saline) is 90 % of control.
For `CS(=O)(=O)OCCN(CCOS(C)(=O)=O)c1ccc(C(=O)O)cc1`, the T/C (dose: 20.0 mg/kg/injection, schedule: Q01DX028 (sc), vehicle: carboxymethylcellulose (CMC)) was 205 % of control; the T/C (dose: 40.0 mg/kg/injection, schedule: Q01DX028 (sc), vehicle: carboxymethylcellulose (CMC)) was 350 % of control; the T/C (dose: 55.0 mg/kg/injection, schedule: Q01DX028 (sc), vehicle: carboxymethylcellulose (CMC)) is 255 % of control; the T/C (dose: 80.0 mg/kg/injection, schedule: Q01DX028 (sc), vehicle: carboxymethylcellulose (CMC)) was 197 % of control; the T/C (dose: 180.0 mg/kg/injection, schedule: Q01DX028 (sc), vehicle: carboxymethylcellulose (CMC)) is 105 % of control; the T/C (dose: 270.0 mg/kg/injection, schedule: Q01DX028 (sc), vehicle: carboxymethylcellulose (CMC)) is 89 % of control.
As for `CCOC(=O)C(Cc1ccc(N(CCCl)CCCl)cc1)NC=O` (configuration not stated), the T/C (dose: 18.7 mg/kg/injection, schedule: Q01DX028 (sc), vehicle: carboxymethylcellulose (CMC)) is 176 % of control; the T/C (dose: 75.0 mg/kg/injection, schedule: Q01DX028 (sc), vehicle: carboxymethylcellulose (CMC)) is 184 % of control; the T/C (dose: 150.0 mg/kg/injection, schedule: Q01DX028 (sc), vehicle: carboxymethylcellulose (CMC)) was 115 % of control; the T/C (dose: 300.0 mg/kg/injection, schedule: Q01DX028 (sc), vehicle: carboxymethylcellulose (CMC)) was 92 % of control.

The record behind these values is PubChem BioAssay AID344 (DTP/NCI, 2004).
